The test system of the assay is K24384-001-R-PDC complex spheroids, viability. The assay is described as follows: Anticancer human tumor K24384-001-R-PDC patient-derived pancreatic adenocarcinoma cell line growth inhibition [GQUAD]. The settings on record: for viability, T/C: stronger effect = lower value. From the text: DNA G-quadruplex Stabilizer Agents in Combinations in Complex Spheroids
A high-throughput screen of multi-cell type tumor spheroids was designed to identify active combinations of DNA G-quadruplex stabilizer agents and targeted small molecules. Complex spheroids include a stromal component modeled by human endothelial cells (HUVEC) and fibroblasts modeled by human mesenchymal stem cells (MSCs). The concentration ranges selected for each drug and investigational agent were based upon clinically achievable concentrations if the clinical Cmax of the agent was known.
Compounds. The drugs and investigational agents: pidnarulex (CX-5461; NSC782164), APTO-253 (NSC789042), BRACO-19 (NSC847499), peposertib (NSC802822), ceralasertib (NSC780249), elimusertib (NSC800525), camonsertib (NSC841442), AZD-1390 (NSC803789), olaparib (NSC753686), talazoparib (NSC767125), ART-558 (NSC835418), sotorasib (NSC818433), MRTX-1133 (NSC836407), SN-38 (NSC673596), topotecan (NSC609699), etoposide (NSC141540), doxorubicin (NSC123127), gemcitabine (NSC613327), 5-fluorouracil (NSC19893), paclitaxel (NSC125973), vemurafenib (NSC761431), panobinostat (NSC761190), R-306465 (JNJ-16241199; NSC773264), adavosertib (NSC754352), TP-3654 (NSC805149), carboplatin (NSC241240), KSQ-4279 (NSC840948), and staurosporine (NSC755774) were obtained from the National Cancer Institute (NCI) Developmental Therapeutics Program Chemical Repository (34). The FDA-approved anticancer drug set is available from the NCI Developmental Therapeutics Program. […] The stock solutions were prepared in dimethyl sulfoxide (DMSO, Sigma-Aldrich, St. Louis, MO, cat. D2650) at 800-fold the tested concentration and stored at -70 degrees C prior to their use. All drugs and investigational agents were tested over a range starting from a high concentration at or near the clinical Cmax and decreasing in half-log increments. If the clinical Cmax for an agent had not been determined, the highest concentration tested was 10 microM.
2.3 Cell Culture. All cells were maintained in an incubator at 37 degrees C and 5% CO2 with 95% humidity. The PDC lines were cultured according to standard operating procedures established by the NCI PDMR. All PDCs were thawed and cultured in Matrigel-coated flasks prepared with a working solution of 1X Ham's F-12 nutrient mix, without supplementation (Invitrogen, cat. 11765054), 100 U/mL penicillin-streptomycin (Invitrogen, cat. 15140122), and 2.5% Matrigel (Corning Inc., cat. 354248) for the first three passages. The 857933-349-R-J2-PDC line was cultured in 6C/Colon 1B media, which includes advanced DMEM/F-12 (Thermo Fisher Scientific, cat. 12634028), 10 mM HEPES (Thermo Fisher Scientific, cat. 15630080), 1X GlutaMAX supplement (Thermo Fisher Scientific, cat. 35050061), 0.1 mg/mL primocin (InvivoGen, cat. ant-pm-2), 10% defined fetal bovine serum, heat inactivated (HyClone Laboratories Inc., cat. SH30070.03HI), 50% L-WRN conditioned media (ATCC, cat. CRL-3276), 1.25 mM N-Acetyl-L-cysteine (Sigma-Aldrich, cat. A9165), 10 mM nicotinamide (Sigma-Aldrich, cat. N0636), 1X B-27 supplement (Thermo Fisher Scientific, cat. 17504044), 1X N-2 supplement (Thermo Fisher Scientific, cat. 17502048), 10 microM Y-27632 dihydrochloride (Tocris Bioscience, cat. 1254), and 50 ng/mL human EGF recombinant protein (Thermo Fisher Scientific, cat. PHG0311). The 485176-168-R4-J1-PDC line was cultured in Panc media, which includes all 6C/Colon 1B media components plus 100 ng/mL human FGF-10 (Thermo Fisher Scientific, cat. 100-26), 500 nM SB-431542 (Selleckchem, cat. S1067), and gastrin (Tocris, cat. 3006).
[…]

Structures are written as SMILES. Where “and” joins values, the source holds several entries; their conditions need not be identical. Equal values may be shown once. Where only a bound is given, the exact number is not on record here.
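Also: spheroids exposed to compounds for seven days.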

With `COc1cc(C2c3cc4c(cc3C(OC3OC5COC(C)OC5C(O)C3O)C3COC(=O)C23)OCO4)cc(OC)c1O` (centres undefined), the viability, T/C by setting is: (compound 0.0316 µM) 103% and 98.4% and 102%; (compound 0.1 µM) 98% (2×) and 98.4%; (compound 0.316 µM) 75.9% and 85.9% and 71.3%; (compound 1 µM) 48.9% and 52.9% and 48.6%; (compound 3.16 µM) 37.1% and 41.1% and 35.2%; (compound 10 µM) 30.8% and 35.4% and 31.2%. Also, the IC50 (curve of compound) is 964 nM and 1320 nM and 884 nM.

For the molecule `COc1ccc([C@@H](O)c2cc(-c3ncnc4cc(N5CCOCC5)ccc34)c(F)cc2Cl)nn1`, the viability, T/C is 92.4% and 98.4% and 120% (compound 0.0316 µM); 99.1% and 95.7% and 103% (compound 0.1 µM); 103% and 83.4% and 83.3% (compound 0.316 µM); 72.3% and 65% and 84.7% (compound 1 µM); 48.4% and 44.9% and 56% (compound 3.16 µM); 29.8% and 22.7% and 35.5% (compound 10 µM). Moreover, under “curve of compound”, the IC50 is 2660 nM and 2310 nM and 4740 nM.

As to `COc1cccc2c1C(=O)c1c(O)c3c(c(O)c1C2=O)CC(O)(C(=O)CO)CC3OC1CC(N)C(O)C(C)O1` (centres undefined), the viability, T/C reads like this: (compound 0.0316 µM) 96.8% and 80.5% and 92.1%; (compound 0.1 µM) 67.9% and 52.2% and 54.5%; (compound 0.316 µM) 38.1% and 41.2% and 43.5%; (compound 1 µM) 19.5% and 22.3% and 19.1%; (compound 3.16 µM) 7.67% and 6.06% and 6.27%; (compound 10 µM) 4.91% and 3.92% and 4.93%. For the same molecule, under “curve of compound”, the IC50 was 201 nM and 144 nM and 161 nM.

Take `Cc1[nH]c2ccc(F)cc2c1-c1nc2c3cccnc3c3ncccc3c2[nH]1`: the viability, T/C is 109% [middle of 12 runs] (compound 0.0316 µM), 102% [middle of 12 runs] (compound 0.1 µM), 99% [middle of 12 runs] (compound 0.316 µM) and 65.3% [middle of 12 runs] (compound 3.16 µM). Besides, the IC50 runs as follows: (compound alone, run of 02/20/2024) > 10000 nM and 9080 nM; (compound alone, run of 02/26/2024) > 10000 nM.

With `Cc1[nH]c2ccccc2c1CCNCc1ccc(/C=C/C(=O)NO)cc1`, the viability, T/C was 103% and 120% and 118% (compound 0.000999 µM); 96.8% and 103% and 92.5% (compound 0.00316 µM); 92.9% and 110% and 98.1% (compound 0.00999 µM); 90% and 89.4% and 90.5% (compound 0.0316 µM); 56.2% and 61% and 48.7% (compound 0.0999 µM); 6.17% and 6.7% and 5.53% (compound 0.316 µM). Where the note is “curve of compound”, the IC50 is 116 nM and 126 nM and 101 nM.

In the case of `Cc1cccc(N(C)C(=O)C2C(O)CCN2c2nc(C)cc(C(F)(F)F)c2C#N)c1` (centres undefined), the viability, T/C runs as follows: (compound 0.0316 µM) 111% and 106% and 99%; (compound 0.1 µM) 106% and 98% and 82%; (compound 0.316 µM) 122% and 102% and 99.9%; (compound 1 µM) 91.4% and 86.8% and 108%; (compound 3.16 µM) 115% and 88% and 114%; (compound 10 µM) 115% and 106% and 127%. In addition, where the note is “curve of compound”, the IC50 is > 10000 nM.

As for `Cc1cnc(CNC(=O)c2c(=O)c3ccc(N4CCCN(C)CC4)nc3n3c2sc2ccccc23)cn1`, the viability, T/C is 82.8% [middle of 12 runs] (compound 0.0316 µM); 66.4% [middle of 12 runs] (compound 0.1 µM); 50.4% [middle of 12 runs] (compound 0.316 µM); 44.4% [middle of 12 runs] (compound 1 µM); 34.6% [middle of 12 runs] (compound 3.16 µM).

For `Cn1ncnc1[C@H]1c2n[nH]c(=O)c3cc(F)cc(c23)N[C@@H]1c1ccc(F)cc1`, the viability, T/C is, setting by setting: (compound 0.000999 µM) 112% and 100% and 116%; (compound 0.00316 µM) 106% and 95% and 96.9%; (compound 0.00999 µM) 109% and 76.1% and 136%; (compound 0.0316 µM) 79.5% and 80.1% and 87.8%; (compound 0.0999 µM) 88.6% and 88.1% and 99.9%; (compound 0.316 µM) 85.2% and 80.7% and 93.3%. For the setting “curve of compound”, the IC50 is > 316 nM.

Take `Nc1ccn(C2OC(CO)C(O)C2(F)F)c(=O)n1` (centres undefined): the viability, T/C (compound 0.0316 µM) was 84.3% and 75.7% and 81.2%; the viability, T/C (compound 0.1 µM) was 63.9% and 51.3% and 63.6%; the viability, T/C (compound 0.316 µM) is 50% and 35.2% and 65.7%; the viability, T/C (compound 1 µM) was 34.6% and 28.7% and 32.3%; the viability, T/C (compound 3.16 µM) was 21.7% and 26.4% and 21.4%; the viability, T/C (compound 10 µM) was 15.8% and 21.2% and 19.7%. Moreover, the IC50 (curve of compound) was 285 nM and 108 nM and 531 nM.

As to `O=C(c1cc(Cc2n[nH]c(=O)c3ccccc23)ccc1F)N1CCN(C(=O)C2CC2)CC1`, the viability, T/C runs as follows: (compound 0.0316 µM) 104% and 98.6% and 94.7%; (compound 0.1 µM) 93.9% and 91.4% and 99.2%; (compound 0.316 µM) 113% and 98.2% and 86.2%; (compound 1 µM) 93.1% and 97.6% and 91%; (compound 3.16 µM) 101% and 72.5% and 91.1%; (compound 10 µM) 79.3% and 69.8% and 82.3%. For the same molecule, the IC50 (curve of compound) is > 10000 nM.

With `O=c1[nH]cc(F)c(=O)[nH]1`, the viability, T/C was 101% and 113% and 79.9% (compound 0.0316 µM); 71.8% and 95.1% and 98.7% (compound 0.1 µM); 89.6% and 94.3% and 82.2% (compound 0.316 µM); 54.9% and 55.5% and 54.3% (compound 1 µM); 41.3% and 45.8% and 44.6% (compound 3.16 µM); 45.5% and 56.4% and 37.8% (compound 10 µM). The half-inhibitory concentration (IC50) (curve of compound) is 1640 nM and > 10000 nM and 1500 nM.

As usually defined, the viability, T/C is the ratio of treated to control. In general, IC50 refers to the point on the concentration scale where inhibition reaches its midpoint.
